#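 Cultured in 96-well plates, cells were exposed to test compound for 48 hours across five concentrations. The concentration for 50% growth inhibition is given as GI50. Definition used: TGI = concentration required for complete inhibition of growth.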
# Assays:
# Assay in all cases: NCI anticancer screen, dose series, 48 h
# SF-539 CNS = tested on: SF-539 CNS
# IGROV1 ovarian = tested on: IGROV1 ovarian
# HOP-62 NSCLC = tested on: HOP-62 NSCLC
# SK-MEL-2 melanoma = tested on: SK-MEL-2 melanoma
# SK-MEL-28 melanoma = tested on: SK-MEL-28 melanoma
# UACC-257 melanoma = tested on: UACC-257 melanoma
# SN12C renal = tested on: SN12C renal
# PC-3 prostate = tested on: PC-3 prostate
# HL-60(TB) leukemia = tested on: HL-60(TB) leukemia
# SF-268 CNS = tested on: SF-268 CNS
# UACC-62 melanoma = tested on: UACC-62 melanoma
# COLO 205 colon = tested on: COLO 205 colon
# A549 NSCLC = tested on: A549 NSCLC
# SW-620 colon = tested on: SW-620 colon
# SNB-19 CNS = tested on: SNB-19 CNS
# EKVX NSCLC = tested on: EKVX NSCLC
# MOLT-4 leukemia = tested on: MOLT-4 leukemia
# CCRF-CEM leukemia = tested on: CCRF-CEM leukemia
# TK-10 renal = tested on: TK-10 renal
# NCI-H460 lung = tested on: NCI-H460 lung
# NCI-H522 lung = tested on: NCI-H522 lung
# HCT-15 colon = tested on: HCT-15 colon
# OVCAR-3 ovarian = tested on: OVCAR-3 ovarian
# MDA-MB-231 breast = tested on: MDA-MB-231 breast
# SR leukemia = tested on: SR leukemia
# M14 melanoma = tested on: M14 melanoma
# UO-31 renal = tested on: UO-31 renal
# HT29 colon = tested on: HT29 colon
# NCI-H226 lung = tested on: NCI-H226 lung
# ACHN renal = tested on: ACHN renal
# SF-295 CNS = tested on: SF-295 CNS
# CAKI-1 renal = tested on: CAKI-1 renal
# T-47D breast = tested on: T-47D breast
# HCT-116 colon = tested on: HCT-116 colon
# SNB-75 CNS = tested on: SNB-75 CNS
# NCI-H23 lung = tested on: NCI-H23 lung
# BT-549 breast = tested on: BT-549 breast
# SK-OV-3 ovarian = tested on: SK-OV-3 ovarian
# OVCAR-5 ovarian = tested on: OVCAR-5 ovarian
# DU-145 prostate = tested on: DU-145 prostate
# HOP-92 NSCLC = tested on: HOP-92 NSCLC
# RPMI-8226 leukemia = tested on: RPMI-8226 leukemia
# NCI/ADR-RES ovarian = tested on: NCI/ADR-RES ovarian
# RXF 393 renal = tested on: RXF 393 renal
# HS 578T breast = tested on: HS 578T breast
# KM12 colon = tested on: KM12 colon
# HCC-2998 colon = tested on: HCC-2998 colon
# MDA-MB-435 = tested on: MDA-MB-435
# 786-0 renal = tested on: 786-0 renal
# U251 CNS = tested on: U251 CNS
# SK-MEL-5 melanoma = tested on: SK-MEL-5 melanoma
# A498 renal = tested on: A498 renal
# MCF7 breast = tested on: MCF7 breast
# K-562 leukemia = tested on: K-562 leukemia
# MALME-3M melanoma = tested on: MALME-3M melanoma
# LOX IMVI melanoma = tested on: LOX IMVI melanoma
# OVCAR-8 ovarian = tested on: OVCAR-8 ovarian
compound,measurement,setting,value
NC1CCC(Nc2nc(NCc3ccc(-c4ccccc4O)nc3)c3ncn(C4CCCC4)c3n2)CC1 (centres undefined),GI50,SF-539 CNS,62.5 nM
same,TGI,SF-539 CNS,267 nM
same,GI50,IGROV1 ovarian,34.5 nM
same,TGI,IGROV1 ovarian,2040 nM
same,GI50,HOP-62 NSCLC,15.7 nM
same,TGI,HOP-62 NSCLC,66.6 nM
same,GI50,SK-MEL-2 melanoma,22.7 nM
same,TGI,SK-MEL-2 melanoma,58.3 nM
same,GI50,SK-MEL-28 melanoma,21.1 nM
same,TGI,SK-MEL-28 melanoma,71.3 nM
same,GI50,UACC-257 melanoma,22.7 nM
same,TGI,UACC-257 melanoma,72.9 nM
same,GI50,SN12C renal,14.9 nM
same,TGI,SN12C renal,1380 nM
same,GI50,PC-3 prostate,27.5 nM
same,TGI,PC-3 prostate,1020 nM
same,GI50,HL-60(TB) leukemia,< 10 nM
same,GI50,SF-268 CNS,< 10 nM
same,TGI,SF-268 CNS,344 nM
same,GI50,UACC-62 melanoma,< 17.4 nM
same,TGI,UACC-62 melanoma,59.3 nM
same,GI50,COLO 205 colon,12 nM
same,TGI,COLO 205 colon,27.8 nM
same,GI50,A549 NSCLC,< 10 nM
same,TGI,A549 NSCLC,1180 nM
same,GI50,SW-620 colon,< 10 nM
same,TGI,SW-620 colon,1230 nM
same,GI50,SNB-19 CNS,< 14.7 nM
same,TGI,SNB-19 CNS,1320 nM
same,GI50,EKVX NSCLC,29.1 nM
same,TGI,EKVX NSCLC,474 nM
same,GI50,MOLT-4 leukemia,< 10 nM
same,TGI,MOLT-4 leukemia,213 nM
same,GI50,CCRF-CEM leukemia,< 10 nM
same,TGI,CCRF-CEM leukemia,1220 nM
same,GI50,TK-10 renal,30.6 nM
same,TGI,TK-10 renal,1330 nM
same,GI50,NCI-H460 lung,33.7 nM
same,TGI,NCI-H460 lung,1170 nM
same,GI50,NCI-H522 lung,< 10 nM
same,TGI,NCI-H522 lung,10 nM
same,GI50,HCT-15 colon,210 nM
same,TGI,HCT-15 colon,1140 nM
same,GI50,OVCAR-3 ovarian,28.8 nM
same,TGI,OVCAR-3 ovarian,89.9 nM
same,GI50,MDA-MB-231 breast,< 10.5 nM
same,TGI,MDA-MB-231 breast,895 nM
same,GI50,SR leukemia,35.4 nM
same,TGI,SR leukemia,1350 nM
same,GI50,M14 melanoma,11.2 nM
same,TGI,M14 melanoma,55.2 nM
same,GI50,UO-31 renal,75.9 nM
same,TGI,UO-31 renal,545 nM
same,GI50,HT29 colon,< 10 nM
same,TGI,HT29 colon,210 nM
same,GI50,NCI-H226 lung,48.6 nM
same,TGI,NCI-H226 lung,404 nM
same,GI50,ACHN renal,140 nM
same,TGI,ACHN renal,1070 nM
same,GI50,SF-295 CNS,29.5 nM
same,TGI,SF-295 CNS,219 nM
same,GI50,CAKI-1 renal,380 nM
same,TGI,CAKI-1 renal,2200 nM
same,GI50,T-47D breast,25.2 nM
same,TGI,T-47D breast,79.1 nM
same,GI50,HCT-116 colon,31.7 nM
same,TGI,HCT-116 colon,1150 nM
same,GI50,SNB-75 CNS,12.1 nM
same,TGI,SNB-75 CNS,35.6 nM
same,GI50,NCI-H23 lung,21.4 nM
same,TGI,NCI-H23 lung,66.4 nM
same,GI50,BT-549 breast,99.8 nM
same,TGI,BT-549 breast,623 nM
same,GI50,SK-OV-3 ovarian,36 nM
same,TGI,SK-OV-3 ovarian,431 nM
same,GI50,OVCAR-5 ovarian,32.2 nM
same,TGI,OVCAR-5 ovarian,1380 nM
same,GI50,DU-145 prostate,34.4 nM
same,TGI,DU-145 prostate,1160 nM
same,GI50,HOP-92 NSCLC,20 nM
same,TGI,HOP-92 NSCLC,77 nM
same,GI50,RPMI-8226 leukemia,< 10 nM
same,TGI,RPMI-8226 leukemia,47.9 nM
same,GI50,NCI/ADR-RES ovarian,135 nM
same,TGI,NCI/ADR-RES ovarian,2180 nM
same,GI50,RXF 393 renal,14.4 nM
same,TGI,RXF 393 renal,35.6 nM
same,GI50,HS 578T breast,< 11 nM
same,TGI,HS 578T breast,1340 nM
same,GI50,KM12 colon,18 nM
same,TGI,KM12 colon,429 nM
same,GI50,HCC-2998 colon,22.9 nM
same,TGI,HCC-2998 colon,515 nM
same,GI50,MDA-MB-435,11.9 nM
same,TGI,MDA-MB-435,1170 nM
same,GI50,786-0 renal,29.3 nM
same,TGI,786-0 renal,1060 nM
same,GI50,U251 CNS,29.4 nM
same,TGI,U251 CNS,321 nM
same,GI50,SK-MEL-5 melanoma,31.3 nM
same,TGI,SK-MEL-5 melanoma,1170 nM
same,GI50,A498 renal,23.3 nM
same,TGI,A498 renal,65.6 nM
O=S(=O)(NCCCNc1nccc(-c2c(-c3ccc(F)c(O)c3)nc3sccn23)n1)c1ccc(F)cc1,GI50,SF-539 CNS,3500 nM
same,TGI,SF-539 CNS,17400 nM
same,GI50,IGROV1 ovarian,1510 nM
same,TGI,IGROV1 ovarian,5880 nM
same,GI50,HOP-62 NSCLC,2780 nM
same,TGI,HOP-62 NSCLC,8700 nM
same,GI50,SK-MEL-2 melanoma,717 nM
same,TGI,SK-MEL-2 melanoma,3010 nM
same,GI50,SK-MEL-28 melanoma,104 nM
same,TGI,SK-MEL-28 melanoma,> 100000 nM
same,GI50,UACC-257 melanoma,262 nM
same,TGI,UACC-257 melanoma,2190 nM
same,GI50,HL-60(TB) leukemia,1860 nM
same,TGI,HL-60(TB) leukemia,5260 nM
same,GI50,MCF7 breast,2390 nM
same,TGI,MCF7 breast,7760 nM
same,GI50,COLO 205 colon,1480 nM
same,TGI,COLO 205 colon,9670 nM
same,GI50,A549 NSCLC,3020 nM
same,TGI,A549 NSCLC,47100 nM
same,GI50,SW-620 colon,3900 nM
same,TGI,SW-620 colon,> 100000 nM
same,GI50,SNB-19 CNS,3330 nM
same,TGI,SNB-19 CNS,> 100000 nM
same,GI50,EKVX NSCLC,3100 nM
same,TGI,EKVX NSCLC,14900 nM
same,GI50,MOLT-4 leukemia,1730 nM
same,TGI,MOLT-4 leukemia,5570 nM
same,GI50,CCRF-CEM leukemia,1580 nM
same,TGI,CCRF-CEM leukemia,6070 nM
same,GI50,TK-10 renal,4330 nM
same,TGI,TK-10 renal,86300 nM
same,GI50,K-562 leukemia,1980 nM
same,TGI,K-562 leukemia,> 100000 nM
same,GI50,NCI-H460 lung,2370 nM
same,TGI,NCI-H460 lung,6350 nM
same,GI50,NCI-H522 lung,1930 nM
same,TGI,NCI-H522 lung,6040 nM
same,GI50,HCT-15 colon,2420 nM
same,TGI,HCT-15 colon,10800 nM
same,GI50,MALME-3M melanoma,31.6 nM
same,TGI,MALME-3M melanoma,1010 nM
same,GI50,SR leukemia,2130 nM
same,TGI,SR leukemia,> 100000 nM
same,GI50,M14 melanoma,48.1 nM
same,TGI,M14 melanoma,3140 nM
same,GI50,UO-31 renal,2960 nM
same,TGI,UO-31 renal,7770 nM
same,GI50,HT29 colon,2940 nM
same,TGI,HT29 colon,37800 nM
same,GI50,NCI-H226 lung,2380 nM
same,TGI,NCI-H226 lung,6980 nM
same,GI50,ACHN renal,2240 nM
same,TGI,ACHN renal,8860 nM
same,GI50,SF-295 CNS,2190 nM
same,TGI,SF-295 CNS,5270 nM
same,GI50,CAKI-1 renal,3570 nM
same,TGI,CAKI-1 renal,> 100000 nM
same,GI50,T-47D breast,2240 nM
same,TGI,T-47D breast,6210 nM
same,GI50,SNB-75 CNS,2020 nM
same,TGI,SNB-75 CNS,8380 nM
same,GI50,NCI-H23 lung,2310 nM
same,TGI,NCI-H23 lung,7390 nM
same,GI50,LOX IMVI melanoma,578 nM
same,TGI,LOX IMVI melanoma,5530 nM
same,GI50,BT-549 breast,1840 nM
same,TGI,BT-549 breast,7140 nM
same,GI50,SK-OV-3 ovarian,2220 nM
same,TGI,SK-OV-3 ovarian,7010 nM
same,GI50,OVCAR-5 ovarian,3410 nM
same,TGI,OVCAR-5 ovarian,> 100000 nM
same,GI50,HOP-92 NSCLC,1460 nM
same,TGI,HOP-92 NSCLC,6240 nM
same,GI50,NCI/ADR-RES ovarian,3440 nM
same,TGI,NCI/ADR-RES ovarian,28000 nM
same,GI50,RXF 393 renal,1530 nM
same,TGI,RXF 393 renal,4680 nM
same,GI50,HS 578T breast,2620 nM
same,TGI,HS 578T breast,7070 nM
same,GI50,KM12 colon,2670 nM
same,TGI,KM12 colon,8360 nM
same,GI50,HCC-2998 colon,2860 nM
same,TGI,HCC-2998 colon,7170 nM
same,GI50,MDA-MB-435,636 nM
same,TGI,MDA-MB-435,3350 nM
same,GI50,786-0 renal,3350 nM
same,TGI,786-0 renal,> 100000 nM
same,GI50,U251 CNS,3470 nM
same,TGI,U251 CNS,> 100000 nM
same,GI50,SK-MEL-5 melanoma,1420 nM
same,TGI,SK-MEL-5 melanoma,2800 nM
same,GI50,A498 renal,2860 nM
same,TGI,A498 renal,6810 nM
same,GI50,OVCAR-8 ovarian,2300 nM
same,TGI,OVCAR-8 ovarian,> 100000 nM
